{"source": "patent US12605396B2", "about": "“Methods of treating mastitis with an orthosomycin antimicrobial compound” (Intervet Inc., priority 2020, dated 2026)", "key": {"Strep. dysgalactiae": {"tested_on": "Strep. dysgalactiae", "experiment": "MIC in bacteriological broth (CLSI VET01-A4)", "type": "cell-based, Streptococcus dysgalactiae", "procedure": "(§1) Minimal inhibitory concentrations (MIC) were determined in bacteriological broth according to Clinical and Laboratory Standard Institute (CLSI) guideline VET01-A4 [1]. The MIC results were interpreted according to the CLSI document VET01-S3 [2]."}, "S. uberis": {"tested_on": "S. uberis", "experiment": "MIC in bacteriological broth (CLSI VET01-A4)", "type": "cell-based, Streptococcus uberis", "procedure": "as §1"}, "Strep. agalactiae": {"tested_on": "Strep. agalactiae", "experiment": "MIC in bacteriological broth (CLSI VET01-A4)", "type": "cell-based, Streptococcus agalactiae", "procedure": "as §1"}, "Truep. pyogenes": {"tested_on": "Truep. pyogenes", "experiment": "MIC in bacteriological broth (CLSI VET01-A4)", "type": "cell-based, Trueperella pyogenes", "procedure": "as §1"}, "[1]": {"tested_on": "mastitis-causing pathogens", "experiment": "Antimicrobial activity against mastitis-causing pathogens (overall statement)", "type": "cell-based", "conditions": "broth-dilution assay and milk", "procedure": "as §1\n(§2) For MIC determination in milk, the in vitro activity was determined by measuring the minimum inhibitory concentrations (MIC) according to CLSI document VET01-A4 [1] using full cream UHT milk as test medium. About 2 h before the end of the incubation 10 μL of alamar Blue® was added to each well of the microdilution trays, resulting in a final concentration of 10% of alamar Blue®. Blue color of the medium indicated no living cells (no bacterial growth) red/pink to white color of the medium indicated living cells (bacterial growth). The MIC results were interpreted according to the CLSI document VET01-S3 [2]."}, "S. aureus [2]": {"tested_on": "S. aureus", "experiment": "MIC in full cream UHT milk with alamar Blue", "type": "cell-based, Staphylococcus aureus", "procedure": "as §2"}, "Streptococcus uberis": {"tested_on": "Streptococcus uberis", "experiment": "Experimental mastitis infection model in lactating cows", "type": "in vivo", "conditions": "oily suspension 200 mg/quarter intramammary, three consecutive times after milking, 21 days observation, FIG. 1", "procedure": "In short, the hind quarters of 10 healthy cows were infected with Streptococcus uberis by intramammary application of 100 bacteria per quarter. At appearance of clinical signs of the challenged quarters (abnormal milk appearance, swollen/hard quarter, pain on palpation) one hind quarter of each cow was treated with an oily suspension of avilamycin at a dose of 200 mg/quarter at three consecutive times after milking. Furthermore, the neighboring infected hint quarter showing clinical signs was mock treated with formulation vehicle at the identical dose volume and schedule. Milk samples were analyzed for S. uberis over a period of 21 days."}, "coa-neg Staph.": {"tested_on": "coa-neg Staph.", "experiment": "MIC in bacteriological broth (CLSI VET01-A4)", "type": "cell-based, coagulase-negative staphylococci", "procedure": "as §1"}, "S. aureus [3]": {"tested_on": "S. aureus", "experiment": "MIC in bacteriological broth (CLSI VET01-A4)", "type": "cell-based, Staphylococcus aureus", "procedure": "as §1"}, "[4]": {"conditions": "bacteriological broth, 29 Strep. dysgalactiae isolates tested"}, "[5]": {"conditions": "broth, of 29 Strep. dysgalactiae isolates"}, "[6]": {"conditions": "bacteriological broth, 30 S. uberis isolates tested"}, "[7]": {"conditions": "broth, of 30 S. uberis isolates"}, "[8]": {"conditions": "bacteriological broth, 30 Strep. agalactiae isolates tested"}, "[9]": {"conditions": "broth, of 30 Strep. agalactiae isolates"}, "[10]": {"conditions": "bacteriological broth, 30 Truep. pyogenes isolates tested"}, "[11]": {"conditions": "broth, of 30 Truep. pyogenes isolates"}, "[12]": {"conditions": "bacteriological broth, 30 coa-neg Staph. isolates tested"}, "[13]": {"conditions": "broth, of 30 coa-neg Staph. isolates"}, "[14]": {"conditions": "bacteriological broth, 50 S. aureus isolates tested"}, "[15]": {"conditions": "broth, of 50 S. aureus isolates"}}, "data": [{"smiles": "COC[C@H]1O[C@@H](OC2OC[C@@H]3O[C@]4(O[C@H]3[C@H]2OC(=O)C(C)C)O[C@H](C)[C@@](O)(C(C)=O)[C@@H]2OCO[C@H]24)[C@@H](OC)[C@@H](O)[C@@H]1O[C@@H]1O[C@H](C)[C@H](OC)[C@H](O[C@H]2C[C@@]3(C)OC4(C[C@@H](O)[C@H](O[C@H]5C[C@@H](O)[C@H](OC(=O)c6c(C)c(Cl)c(O)c(Cl)c6OC)[C@@H](C)O5)[C@@H](C)O4)O[C@@H]3[C@@H](C)O2)[C@H]1O", "note": "(some centres unmarked) [avilamycin]", "values": [{"measurement": "MIC50", "setting": "Strep. dysgalactiae; [4]", "value": 0.125, "unit": "µg/mL"}, {"measurement": "MIC90", "setting": "Strep. dysgalactiae; [4]", "value": 0.25, "unit": "µg/mL"}, {"measurement": "Maximum MIC", "setting": "Strep. dysgalactiae; [4]", "value": 0.25, "unit": "µg/mL"}, {"measurement": "Minimum MIC", "setting": "Strep. dysgalactiae; [4]", "value": "≤0.063", "unit": "µg/mL"}, {"measurement": "Number of isolates with MIC 0.125 μg/mL", "setting": "Strep. dysgalactiae; [5]", "value": 23}, {"measurement": "Number of isolates with MIC 0.25 μg/mL", "setting": "Strep. dysgalactiae; [5]", "value": 5}, {"measurement": "Number of isolates with MIC ≤0.063 μg/mL", "setting": "Strep. dysgalactiae; [5]", "value": 1}, {"measurement": "MIC50", "setting": "S. uberis; [6]", "value": 0.5, "unit": "µg/mL"}, {"measurement": "MIC90", "setting": "S. uberis; [6]", "value": 0.5, "unit": "µg/mL"}, {"measurement": "Maximum MIC", "setting": "S. uberis; [6]", "value": 0.5, "unit": "µg/mL"}, {"measurement": "Minimum MIC", "setting": "S. uberis; [6]", "value": 0.125, "unit": "µg/mL"}, {"measurement": "Number of isolates with MIC 0.125 μg/mL", "setting": "S. uberis; [7]", "value": 1}, {"measurement": "Number of isolates with MIC 0.25 μg/mL", "setting": "S. uberis; [7]", "value": 12}, {"measurement": "Number of isolates with MIC 0.5 μg/mL", "setting": "S. uberis; [7]", "value": 17}, {"measurement": "MIC50", "setting": "Strep. agalactiae; [8]", "value": "≤0.063", "unit": "µg/mL"}, {"measurement": "MIC90", "setting": "Strep. agalactiae; [8]", "value": 0.125, "unit": "µg/mL"}, {"measurement": "Maximum MIC", "setting": "Strep. agalactiae; [8]", "value": 0.125, "unit": "µg/mL"}, {"measurement": "Minimum MIC", "setting": "Strep. agalactiae; [8]", "value": "≤0.063", "unit": "µg/mL"}, {"measurement": "Number of isolates with MIC 0.125 μg/mL", "setting": "Strep. agalactiae; [9]", "value": 13}, {"measurement": "Number of isolates with MIC ≤0.063 μg/mL", "setting": "Strep. agalactiae; [9]", "value": 17}, {"measurement": "MIC50", "setting": "Truep. pyogenes; [10]", "value": "≤0.063", "unit": "µg/mL"}, {"measurement": "MIC90", "setting": "Truep. pyogenes; [10]", "value": "≤0.063", "unit": "µg/mL"}, {"measurement": "Maximum MIC", "setting": "Truep. pyogenes; [10]", "value": 0.125, "unit": "µg/mL"}, {"measurement": "Minimum MIC", "setting": "Truep. pyogenes; [10]", "value": "≤0.063", "unit": "µg/mL"}, {"measurement": "Number of isolates with MIC 0.125 μg/mL", "setting": "Truep. pyogenes; [11]", "value": 1}, {"measurement": "Number of isolates with MIC ≤0.063 μg/mL", "setting": "Truep. pyogenes; [11]", "value": 29}, {"measurement": "Antimicrobial activity against mastitis-causing pathogens", "setting": "[1]", "value": "Good antimicrobial activity"}, {"measurement": "Activity in milk", "setting": "S. aureus [2]", "value": "maintained its activity"}, {"measurement": "MIC90 against S. aureus compared with MIC90 of penicillin G", "setting": "S. aureus [2]", "value": "significantly lower"}, {"measurement": "Distribution of MIC values: isolates with MIC 0.125 μg/ml", "setting": "S. aureus [2]; S. aureus (n = 20)", "value": 0}, {"measurement": "Distribution of MIC values: isolates with MIC 0.25 μg/ml", "setting": "S. aureus [2]; S. aureus (n = 20)", "value": 0}, {"measurement": "Distribution of MIC values: isolates with MIC 0.5 μg/ml", "setting": "S. aureus [2]; S. aureus (n = 20)", "value": 1}, {"measurement": "Distribution of MIC values: isolates with MIC 1 μg/ml", "setting": "S. aureus [2]; S. aureus (n = 20)", "value": 1}, {"measurement": "Distribution of MIC values: isolates with MIC 2 μg/ml", "setting": "S. aureus [2]; S. aureus (n = 20)", "value": 1}, {"measurement": "Distribution of MIC values: isolates with MIC 4 μg/ml", "setting": "S. aureus [2]; S. aureus (n = 20)", "value": 16}, {"measurement": "Distribution of MIC values: isolates with MIC 8 μg/ml", "setting": "S. aureus [2]; S. aureus (n = 20)", "value": 1}, {"measurement": "Distribution of MIC values: isolates with MIC 16 μg/ml", "setting": "S. aureus [2]; S. aureus (n = 20)", "value": 0}, {"measurement": "Distribution of MIC values: isolates with MIC 32 μg/ml", "setting": "S. aureus [2]; S. aureus (n = 20)", "value": 0}, {"measurement": "Distribution of MIC values: isolates with MIC 64 μg/ml", "setting": "S. aureus [2]; S. aureus (n = 20)", "value": 0}, {"measurement": "Distribution of MIC values: isolates with MIC >64 μg/ml", "setting": "S. aureus [2]; S. aureus (n = 20)", "value": 0}, {"measurement": "Distribution of MIC values: isolates with MIC ≤0.063 μg/ml", "setting": "S. aureus [2]; S. aureus (n = 20)", "value": 0}, {"measurement": "MIC90", "setting": "S. aureus [2]; S. aureus (n = 20)", "value": 4, "unit": "µg/mL"}, {"measurement": "Proportion of quarters free of S. uberis compared to quarters treated with vehicle", "setting": "Streptococcus uberis", "value": "substantially higher"}, {"measurement": "MIC50", "setting": "coa-neg Staph.; [12]", "value": 2, "unit": "µg/mL"}, {"measurement": "MIC90", "setting": "coa-neg Staph.; [12]", "value": 4, "unit": "µg/mL"}, {"measurement": "Maximum MIC", "setting": "coa-neg Staph.; [12]", "value": 32, "unit": "µg/mL"}, {"measurement": "Minimum MIC", "setting": "coa-neg Staph.; [12]", "value": 1, "unit": "µg/mL"}, {"measurement": "Number of isolates with MIC 1 μg/mL", "setting": "coa-neg Staph.; [13]", "value": 4}, {"measurement": "Number of isolates with MIC 2 μg/mL", "setting": "coa-neg Staph.; [13]", "value": 13}, {"measurement": "Number of isolates with MIC 4 μg/mL", "setting": "coa-neg Staph.; [13]", "value": 11}, {"measurement": "Number of isolates with MIC 8 μg/mL", "setting": "coa-neg Staph.; [13]", "value": 1}, {"measurement": "Number of isolates with MIC 32 μg/mL", "setting": "coa-neg Staph.; [13]", "value": 1}, {"measurement": "MIC50", "setting": "S. aureus [3]; [14]", "value": 2, "unit": "µg/mL"}, {"measurement": "MIC90", "setting": "S. aureus [3]; [14]", "value": 4, "unit": "µg/mL"}, {"measurement": "Maximum MIC", "setting": "S. aureus [3]; [14]", "value": 4, "unit": "µg/mL"}, {"measurement": "Minimum MIC", "setting": "S. aureus [3]; [14]", "value": 1, "unit": "µg/mL"}, {"measurement": "Number of isolates with MIC 1 μg/mL", "setting": "S. aureus [3]; [15]", "value": 5}, {"measurement": "Number of isolates with MIC 2 μg/mL", "setting": "S. aureus [3]; [15]", "value": 19}, {"measurement": "Number of isolates with MIC 4 μg/mL", "setting": "S. aureus [3]; [15]", "value": 26}]}]}
